Measurements: article PMC5516028, “Molecular tools for GABAA receptors: High affinity ligands for β1-containing subtypes” (Scientific Reports, 2017)
Values joined by “and” are separate entries in the source; they are usually repeats but may differ in a detail not shown here. Equal values may be shown once. Read-outs that look alike come from different tables or passages of the source.

Columns and labels:
Assay type in all cases: cell-based
α6β3γ2 GABAA receptors = target: T1, α6β3γ2 GABAA receptors (Rattus norvegicus, UniProt P30191+P63079); assay: Two electrode voltage clamp in Xenopus laevis oocytes, α6β3γ2
T1 construct: expressed in transfected cells; host or cells: Xenopus laevis oocytes, mRNA injected
Text: (§1) cDNA’s of rat GABAA receptor subunits α1, α4, β1, β2, β3 and γ2S were cloned as described. cDNAs of the rat subunits α2, α3 and α5 were gifts from P. Malherbe, that of α6 and γ1 were gifts of P. Seeburg and that of δ was a gift of C. Czajkowski. The mutants were constructed using the Q5 Site-Directed Mutagenesis Kit (New England Biolabs) following manufacturer’s instruction. We used the wild-type rat β3-pCI vector as template and the primers […] and […] resulting in a substitution of amino acid N41 (AAC) to R (AGG). We used the wild-type rat β1-pCI vector as template and the primers […] and […] resulting in a substitution of amino acid R41 (CGG) to N (AAC). The mutated subunits were confirmed by sequencing.
(§2) In vitro transcription of mRNA was based on the cDNA expression vectors encoding for rat GABAA receptor subunits α1–6, β1-3, γ1,2, δ and the two β mutants (β1R41N and β3N41R)[40]. After linearizing the cDNA vectors with appropriate restriction endonucleases, the cDNA was purified and concentrated with the DNA Clean and Contentrator ^TM Kit (Zymoresearch, Catalog No. D4005). Capped transcripts of the purified cDNA were produced using the mMESSAGE mMACHINE® T7 transcription kit (Ambion, TX, USA) and polyadenylated using the Ambion PolyA tailing kit (Ambion). After transcription and polyadenylation the RNA was purified with the MEGAclear ^TM Kit (Ambion, Catalog No. AM1908). The final RNA concentration was measured on NanoDrop® ND-1000 and finally diluted and stored in diethylpyrocarbonate-treated water at −80 °C. For the microinjection, the RNA of αβ receptor combinations was mixed at 1:1 ratio (which leads to αβ receptors that consist of predominantly 3 beta and 2 alpha subunits[27]), for αkβlγm (k = 1–3, l = 1, 3, m = 1, 2) receptors at 1:1:5 ratio, for αkβ3γ2 (k = 4–6) and αkβlδ (k = 1, 4 and 6, l = 1, 3) receptor combinations at 3:1:5 ratio.
(§3) Mature female Xenopus laevis (Nasco, WI) were anesthetized in a bath of ice-cold 0.17% Tricain (Ethyl-m-aminobenzoate, Sigma, MO) before decapitation in full accordance with all rules of the Austrian animal protection law (see http://www.ris.bka.gv.at/Dokumente/BgblAuth/BGBLA_2012_I_114/BGBLA_2012_I_114.pdf) and the Austrian animal experiment by-laws (see https://www.ris.bka.gv.at/Dokumente/BgblAuth/BGBLA_2012_II_522/BGBLA_2012_II_522.pdf) which implement the European Directive 2010/63/EU (see http://eur-lex.europa.eu/LexUriServ/LexUriServ.do?uri=OJ:L:2010:276:0033:0079:en:PDF) into the Austrian law (all information accessed on July 27, 2016). The frog’s ovaries were transferred to ND96 medium (96 mM NaCl, 2 mM KCl, 1 mM MgCl2, 5 mM HEPES; pH 7.5). Stage 5–6 oocytes with the follicle cell layer around them were roughly dissected with forceps into packages of 10–15 cells and washed in Ca^2+-free ND96 medium. Cells were then digested with collagenase (type IA, Sigma, NO, 1 mg/mL ND96) at 18 °C shaking at 30 rpm for 30–60 minutes and gently defolliculated with the aid of a glass pipette with appropriate tip diameter and a platinum loop. Defolliculated cells were stored at 18 °C for at least 6 hours in ND96 solution containing penicillin G (10000 IU/100 mL) and streptomycin (10 mg/100 mL) in order to preselect and exclude damaged cells from further treatment. Healthy defolliculated oocytes were injected with an aqueous solution of mRNA. A total of 4.5 ng of mRNA per oocyte was injected with a Nanoject II (Drummond). After injection of mRNA, oocytes were incubated at 18 °C (ND96 + antibiotic) for 2–3 days for αβ receptors and for 3–4 days for αβγ or αβδ receptors before recording. When cells were measured at later time points, oocytes were stored at +4 °C instead of 18 °C.
(§4) For electrophysiological recordings, oocytes were placed on a nylon-grid in a bath of Ca^2+-containing NDE solution medium [96 mM NaCl, 5 mM HEPES-NaOH (pH 7.5), 2 mM KCl, 1 mM MgCl2, 1.8 mM CaCl2].

α2β3 GABAA receptors = target: T2, α2β3 GABAA receptors (Rattus norvegicus, UniProt P23576+P63079); assay: Two electrode voltage clamp in Xenopus laevis oocytes, α2β3
T2 construct: expressed in transfected cells; host or cells: Xenopus laevis oocytes, mRNA injected
Text: as §1, §2, §3, §4

α5β3 GABAA receptors = target: T3, α5β3 GABAA receptors (Rattus norvegicus, UniProt P19969+P63079); assay: Two electrode voltage clamp in Xenopus laevis oocytes, α5β3; details: read-out: efficacy, % of control current (GABA EC3-5 = 100%), α5β3
T3 construct: expressed in transfected cells; host or cells: Xenopus laevis oocytes, mRNA injected
Text: as §1, §2, §3, §4

α3β3γ2 GABAA receptors = target: T4, α3β3γ2 GABAA receptors (Rattus norvegicus, UniProt P20236+P63079); assay: Two electrode voltage clamp in Xenopus laevis oocytes, α3β3γ2
T4 construct: expressed in transfected cells; host or cells: Xenopus laevis oocytes, mRNA injected
Text: as §1, §2, §3, §4

α1β3γ2 GABAA receptors = target: T5, α1β3γ2 GABAA receptors (Rattus norvegicus, UniProt P62813+P63079); assay: Two electrode voltage clamp in Xenopus laevis oocytes, α1β3γ2
T5 construct: expressed in transfected cells; host or cells: Xenopus laevis oocytes, mRNA injected
Text: as §1, §2, §3, §4

α5β3γ2 GABAA receptors = target: T6, α5β3γ2 GABAA receptors (Rattus norvegicus, UniProt P19969+P63079); assay: Two electrode voltage clamp in Xenopus laevis oocytes, α5β3γ2
T6 construct: expressed in transfected cells; host or cells: Xenopus laevis oocytes, mRNA injected
Text: as §1, §2, §3, §4

α2β3γ2 GABAA receptors = target: T7, α2β3γ2 GABAA receptors (Rattus norvegicus, UniProt P23576+P63079); assay: Two electrode voltage clamp in Xenopus laevis oocytes, α2β3γ2
T7 construct: expressed in transfected cells; host or cells: Xenopus laevis oocytes, mRNA injected
Text: as §1, §2, §3, §4

[1] = read-out: efficacy, % of control current (GABA EC3-5 = 100%), 1 nM
[2] = read-out: efficacy, % of control current (GABA EC3-5 = 100%), 10 nM
[3] = read-out: efficacy, % of control current (GABA EC3-5 = 100%), 100 nM
[4] = read-out: efficacy, % of control current (GABA EC3-5 = 100%), 1 µM
[5] = read-out: efficacy, % of control current (GABA EC3-5 = 100%), 10 µM
[6] = read-out: efficacy, % of control current (GABA EC3-5 = 100%), 300 nM
[7] = read-out: efficacy, % of control current (GABA EC3-5 = 100%), 30 µM

T6 sequence (P19969 32-464 limits assumed): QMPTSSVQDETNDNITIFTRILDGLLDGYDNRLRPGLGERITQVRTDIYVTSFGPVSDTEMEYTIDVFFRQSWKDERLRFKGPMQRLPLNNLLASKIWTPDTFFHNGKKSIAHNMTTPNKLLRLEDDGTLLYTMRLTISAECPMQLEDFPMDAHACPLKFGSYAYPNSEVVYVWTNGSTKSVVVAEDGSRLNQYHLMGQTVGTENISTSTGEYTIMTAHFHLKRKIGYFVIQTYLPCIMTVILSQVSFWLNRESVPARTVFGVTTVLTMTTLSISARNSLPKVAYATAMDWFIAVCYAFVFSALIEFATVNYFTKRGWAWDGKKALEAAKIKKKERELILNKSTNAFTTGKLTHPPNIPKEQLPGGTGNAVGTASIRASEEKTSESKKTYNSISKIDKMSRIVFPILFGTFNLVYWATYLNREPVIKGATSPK
T6 sequence (P63079 26-473): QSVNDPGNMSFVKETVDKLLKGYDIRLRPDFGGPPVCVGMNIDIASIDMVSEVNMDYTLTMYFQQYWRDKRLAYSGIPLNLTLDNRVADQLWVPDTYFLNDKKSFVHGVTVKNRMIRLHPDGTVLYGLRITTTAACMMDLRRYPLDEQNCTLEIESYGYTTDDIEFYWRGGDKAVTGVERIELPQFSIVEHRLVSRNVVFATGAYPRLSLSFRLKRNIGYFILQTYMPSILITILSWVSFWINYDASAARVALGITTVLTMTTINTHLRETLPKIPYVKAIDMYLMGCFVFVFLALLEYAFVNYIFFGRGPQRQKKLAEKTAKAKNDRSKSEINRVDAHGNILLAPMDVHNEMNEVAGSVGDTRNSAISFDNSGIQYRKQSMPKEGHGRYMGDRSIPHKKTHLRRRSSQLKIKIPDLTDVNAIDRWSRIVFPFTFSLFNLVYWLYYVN
T6 sequence (P18508 39-466 partner): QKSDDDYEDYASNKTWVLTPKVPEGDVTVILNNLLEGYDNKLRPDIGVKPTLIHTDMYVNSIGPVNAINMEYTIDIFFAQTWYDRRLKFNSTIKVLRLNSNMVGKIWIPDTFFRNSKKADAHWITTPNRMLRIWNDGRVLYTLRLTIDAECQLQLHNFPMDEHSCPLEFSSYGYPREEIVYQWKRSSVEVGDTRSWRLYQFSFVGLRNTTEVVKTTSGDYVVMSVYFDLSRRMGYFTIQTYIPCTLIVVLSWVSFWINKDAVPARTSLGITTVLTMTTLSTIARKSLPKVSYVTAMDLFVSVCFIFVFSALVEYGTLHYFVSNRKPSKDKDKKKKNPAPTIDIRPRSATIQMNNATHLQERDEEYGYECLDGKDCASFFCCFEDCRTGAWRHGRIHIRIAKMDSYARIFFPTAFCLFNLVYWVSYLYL
T3 sequence (P19969 32-464 limits assumed): as the sequence (P19969 32-464 limits assumed) above
T3 sequence (P63079 26-473): as the sequence (P63079 26-473) above
T5 sequence (P62813 28-455): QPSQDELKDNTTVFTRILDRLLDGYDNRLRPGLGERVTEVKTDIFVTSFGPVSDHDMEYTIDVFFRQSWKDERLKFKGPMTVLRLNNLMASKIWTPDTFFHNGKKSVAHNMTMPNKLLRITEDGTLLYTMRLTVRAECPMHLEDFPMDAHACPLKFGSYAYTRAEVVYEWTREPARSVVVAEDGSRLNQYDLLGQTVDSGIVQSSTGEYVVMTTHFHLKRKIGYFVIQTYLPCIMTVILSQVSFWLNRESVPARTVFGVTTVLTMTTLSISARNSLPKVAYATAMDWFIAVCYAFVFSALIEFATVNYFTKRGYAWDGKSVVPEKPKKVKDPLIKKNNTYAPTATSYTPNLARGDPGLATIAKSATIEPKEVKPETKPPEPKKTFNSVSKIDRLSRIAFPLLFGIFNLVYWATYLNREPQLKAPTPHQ
T5 sequence (P63079 26-473): as the sequence (P63079 26-473) above
T5 sequence (P18508 39-466 partner): as the sequence (P18508 39-466 partner) above
T1 sequence (P30191 20-453): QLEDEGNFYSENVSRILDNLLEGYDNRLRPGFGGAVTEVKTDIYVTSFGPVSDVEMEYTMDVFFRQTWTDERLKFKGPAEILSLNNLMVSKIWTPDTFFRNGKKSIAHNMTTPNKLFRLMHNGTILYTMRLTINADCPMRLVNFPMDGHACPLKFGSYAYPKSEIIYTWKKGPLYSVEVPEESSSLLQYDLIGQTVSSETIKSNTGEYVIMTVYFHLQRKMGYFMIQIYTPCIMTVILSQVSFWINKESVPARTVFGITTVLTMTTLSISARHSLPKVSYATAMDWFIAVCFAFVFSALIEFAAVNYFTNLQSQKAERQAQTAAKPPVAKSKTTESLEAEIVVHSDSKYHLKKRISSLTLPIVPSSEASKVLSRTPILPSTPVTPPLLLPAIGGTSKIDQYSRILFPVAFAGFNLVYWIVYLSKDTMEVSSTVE
T1 sequence (P63079 26-473): as the sequence (P63079 26-473) above
T1 sequence (P18508 39-466 partner): as the sequence (P18508 39-466 partner) above
T2 sequence (P23576 29-451): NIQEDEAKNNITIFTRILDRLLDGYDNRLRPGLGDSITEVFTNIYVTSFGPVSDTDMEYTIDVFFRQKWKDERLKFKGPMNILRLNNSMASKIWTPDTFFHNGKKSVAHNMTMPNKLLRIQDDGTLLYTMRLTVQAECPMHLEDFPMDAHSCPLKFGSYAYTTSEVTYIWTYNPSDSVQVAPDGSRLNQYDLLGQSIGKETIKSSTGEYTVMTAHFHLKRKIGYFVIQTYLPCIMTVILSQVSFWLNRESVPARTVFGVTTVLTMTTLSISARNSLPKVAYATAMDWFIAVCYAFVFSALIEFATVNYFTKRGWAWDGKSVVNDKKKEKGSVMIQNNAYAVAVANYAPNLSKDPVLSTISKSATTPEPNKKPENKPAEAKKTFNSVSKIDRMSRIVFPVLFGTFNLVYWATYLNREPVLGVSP
T2 sequence (P63079 26-473): as the sequence (P63079 26-473) above
T7 sequence (P23576 29-451): as the sequence (P23576 29-451) above
T7 sequence (P63079 26-473): as the sequence (P63079 26-473) above
T7 sequence (P18508 39-466 partner): as the sequence (P18508 39-466 partner) above
T4 sequence (P20236 29-493): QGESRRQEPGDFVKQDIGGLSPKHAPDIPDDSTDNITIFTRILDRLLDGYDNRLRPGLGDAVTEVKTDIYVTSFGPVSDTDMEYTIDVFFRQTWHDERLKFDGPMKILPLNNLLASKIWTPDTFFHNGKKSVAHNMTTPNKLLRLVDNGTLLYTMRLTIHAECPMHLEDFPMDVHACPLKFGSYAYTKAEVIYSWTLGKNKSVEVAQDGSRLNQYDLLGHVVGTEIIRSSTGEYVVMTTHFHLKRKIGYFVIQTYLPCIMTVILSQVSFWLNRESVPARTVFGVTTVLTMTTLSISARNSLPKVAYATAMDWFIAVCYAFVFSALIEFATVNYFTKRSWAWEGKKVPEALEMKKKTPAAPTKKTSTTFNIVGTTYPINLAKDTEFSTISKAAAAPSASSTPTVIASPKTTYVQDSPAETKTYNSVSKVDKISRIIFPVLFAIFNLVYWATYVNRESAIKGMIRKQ
T4 sequence (P63079 26-473): as the sequence (P63079 26-473) above
T4 sequence (P18508 39-466 partner): as the sequence (P18508 39-466 partner) above

EC50 (α6β3γ2 GABAA receptors; co-applied with GABA EC3-5): ~2 µM and 2.3 µM
activity at 0.001 µM (α6β3γ2 GABAA receptors; [1]): 108 ± 5.9%
activity at 0.01 µM (α6β3γ2 GABAA receptors; [2]): 120 ± 7.1%
activity at 0.1 µM (α6β3γ2 GABAA receptors; [3]): 148 ± 8%
activity at 1 µM (α6β3γ2 GABAA receptors; [4]): 250 ± 18.9%
activity at 10 µM (α6β3γ2 GABAA receptors; [5]): 394 ± 35%
EC50 (α2β3 GABAA receptors; read-out: EC50): 5.1 µM
activity at 0.001 µM (α2β3 GABAA receptors; read-out: efficacy, % of control current (GABA EC3-5 = 100%), α2β3, 1 nM): 100 ± 0.1%
activity at 0.1 µM (α2β3 GABAA receptors; read-out: efficacy, % of control current (GABA EC3-5 = 100%), α2β3, 100 nM): 102 ± 1.2%
activity at 10 µM (α2β3 GABAA receptors; read-out: efficacy, % of control current (GABA EC3-5 = 100%), α2β3, 10 µM): 156 ± 9.7%
activity at 0.1 µM (α5β3 GABAA receptors; 100 nM): 115 ± 8%
activity at 1 µM (α5β3 GABAA receptors; 1 µM): 108 ± 4.7%
activity at 10 µM (α5β3 GABAA receptors; 10 µM): 75.4 ± 6.4%
modulatory effects up to (α3β3γ2 GABAA receptors): ~ 200%
EC50 (α3β3γ2 GABAA receptors; co-applied with GABA EC3-5): ~1 µM and 1.2 µM
activity at 0.001 µM (α3β3γ2 GABAA receptors; [1]): 100%
activity at 0.01 µM (α3β3γ2 GABAA receptors; [2]): 101 ± 1%
activity at 0.1 µM (α3β3γ2 GABAA receptors; [3]): 108 ± 3.7%
activity at 0.3 µM (α3β3γ2 GABAA receptors; [6]): 104 ± 4%
activity at 1 µM (α3β3γ2 GABAA receptors; [4]): 133 ± 4%
activity at 10 µM (α3β3γ2 GABAA receptors; [5]): 202 ± 23%
activity at 30 µM (α3β3γ2 GABAA receptors; [7]): 195%
EC50 (α1β3γ2 GABAA receptors; co-applied with GABA EC3-5, read-out: EC50): ~1 µM
activity at 0.001 µM (α1β3γ2 GABAA receptors; [1]): 100.8 ± 0.6%
activity at 0.01 µM (α1β3γ2 GABAA receptors; [2]): 103 ± 1.4%
activity at 0.3 µM (α1β3γ2 GABAA receptors; [6]): 120 ± 4.3%
activity at 1 µM (α1β3γ2 GABAA receptors; [4]): 145 ± 3.7%
activity at 3 µM (α1β3γ2 GABAA receptors; read-out: efficacy, % of control current (GABA EC3-5 = 100%), 3 µM): 197 ± 13.7%
activity at 10 µM (α1β3γ2 GABAA receptors; [5]): 232 ± 7.5%
activity at 30 µM (α1β3γ2 GABAA receptors; [7]): 137 ± 17.8%
Emax (α1β3γ2 GABAA receptors; read-out: maximum efficacy / modulatory effects up to): ~200%
EC50 (α1β3γ2 GABAA receptors; read-out: pEC50 (converted)): 1.26 µM
EC50 (α5β3γ2 GABAA receptors): > 10 µM
activity at 0.01 µM (α5β3γ2 GABAA receptors; read-out: efficacy, % of control current (GABA EC3-5 = 100%), α5β3γ2, 10 nM): 89.6 ± 3.1%
activity at 0.1 µM (α5β3γ2 GABAA receptors; read-out: efficacy, % of control current (GABA EC3-5 = 100%), α5β3γ2, 100 nM): 83.6 ± 4.2%
activity at 1 µM (α5β3γ2 GABAA receptors; read-out: efficacy, % of control current (GABA EC3-5 = 100%), α5β3γ2, 1 µM): 90.6 ± 5.1%
activity at 10 µM (α5β3γ2 GABAA receptors; read-out: efficacy, % of control current (GABA EC3-5 = 100%), α5β3γ2, 10 µM): 52.8 ± 6.7%
EC50 (α2β3γ2 GABAA receptors): > 10 µM
activity at 0.01 µM (α2β3γ2 GABAA receptors; read-out: efficacy, % of control current (GABA EC3-5 = 100%), α2β3γ2, 10 nM): 103 ± 3.2%
activity at 0.1 µM (α2β3γ2 GABAA receptors; read-out: efficacy, % of control current (GABA EC3-5 = 100%), α2β3γ2, 100 nM): 103 ± 3.2%
activity at 1 µM (α2β3γ2 GABAA receptors; read-out: efficacy, % of control current (GABA EC3-5 = 100%), α2β3γ2, 1 µM): 106 ± 2.2%
activity at 10 µM (α2β3γ2 GABAA receptors; read-out: efficacy, % of control current (GABA EC3-5 = 100%), α2β3γ2, 10 µM): 124 ± 4.1%
SMILES: Nc1ccc(-n2nc3c4cc(Cl)ccc4[nH]cc-3c2=O)cc1 [Compound 3, 8-Chloro-2-(4-aminophenyl)-2H-pyrazolo[4,3-c]quinolin-3(5H)-one]
